From patent US11034654B2, “2,3-dihydroisoindole-1-carboxamides useful as ROR-gamma modulators” (AstraZeneca AB, priority 2017, dated 2021)
pIC50: −log10 of the molar value.

Legend:
[1] = molecular target: T1, RORγ ligand binding domain (Homo sapiens, UniProt P51449); experiment: RORγ radioligand competition binding assay (SPA); details: competition with tritiated 2-(4-(ethylsulfonyl)phenyl)-N-(4-(2-(methoxymethyl)phenyl)thiophen-2-yl)acetamide (25 nM), hRORγ LBD
Text: RORγ Radioligand Competition Binding Assay The aim of this assay is to identify compounds which bind to the RORγ ligand binding domain, by competing with tritiated 2-(4-(ethylsulfonyl)phenyl)-N-(4-(2-(methoxymethyl)phenyl)thiophen-2-yl)acetamide. Human RORγ (Ligand Binding Domain (RORγ LBD) was expressed in E. coli (BL21DE3 Star) as a fusion protein: N-6×HN-Avi-GST-TCS-hRORγ LBD (S258-K518) subcloned into pET24a(+). The LBD (258-518) is underlined in the protein sequence: The scintillation proximity assay (SPA) was run in white polystyrene flat-bottom 384-well plates (Greiner, cat. No. 781075). Assays were carried out in 40 μl reaction volumes. Various concentrations of test ligands in 0.4 microlitres of DMSO were added to assay plates using an acoustic liquid dispenser. 4 nM purified N-(HN)6-GST-TCS-hRORγ (258-518) was mixed with 40 micrograms Yttrium oxide (YOx) glutathione SPA imaging beads in assay buffer (20 mM Tris, 150 mM NaCl, 10% Glycerol, 0.25% CHAPS, 1 mM TCEP) prior to adding 30 microlitres to test ligands. Assay plates were incubated for one hour at room temperature before adding 10 microlitres tritiated 2-(4-(ethylsulfonyl)phenyl)-N-(4-(2-(methoxymethyl)phenyl)thiophen-2-yl)acetamide to test plates in assay buffer (final concentration, 25 nM). Test plates were incubated for 16 hours and read using a LEADseeker Multimodality imaging instrument. The raw data was analysed and IC50 and Ki values for the compounds were calculated using Genedata Screener software. Raw data was transformed to % effect using equation 1: Compound % effect=100*[(X−min)/(max−min)], where X represents the normalized value for the compound based on the Min (vehicle) and Max (reference compound) inhibition controls. The concentration of test ligand that inhibited radioligand binding by 50% (i.e., the IC50) was calculated by plotting the % effect versus test ligand concentration and fitting the data using the Genedata Screener Smart fit algorithm. Ki is calculated from the IC50 value using the equation Ki=IC50/1+[L]/Kd) where [L]=25 nmol/L and Kd=17 nmol/L

[2] = molecular target: T1, RORγ ligand binding domain; experiment: RORγ co-factor recruitment assay (FRET); type: biochemical; design: made in house; host or cells: E. coli BL21DE3 Star; details: inhibition of recruitment of SRC-1 peptide (NCOA1_677-700) to hRORγ LBD, HTRF read-out
Text: RORγ Co-Factor Recruitment Assay A high throughput coactivator binding assay for the identification of inverse agonists of the recruitment of peptide SRC-1 (NCOA1_677-_700) to the RORγ ligand binding domain was established. The ligand binding domain (LBD) of human RORγ was expressed in E. coli (BL21DE3 Star) as a fusion protein: N-6×HN-MBP-Avi-TCS-hRORγLBD(P260-K518) subcloned into pET24a(+). The LBD (P260-K518) is underlined in the protein sequence: The assay was run in black 384 well plates (Greiner cat no: 784900). Various concentrations of test ligands in 0.1 microlitres DMSO were dispensed to assay plates using an Echo acoustic dispenser. Two pre-mixes were prepared and incubated for 1 h at room temp in the dark. Pre-mix 1 comprised 100 nM Protein (Biotinylated HN-Avi-MBP-TCS-hRORγ (258-518)) and 60 nM Streptavidin APC in assay buffer, 50 mM MOPS pH7.4, 50 mM KF, 0.003% (w/v) CHAPS, 10 mM DTT and 0.01% (w/v) BSA and pre-mix 2 comprised 160 nM biotinylated SRC-1 peptide (NCOA1-677-700) and 20 nM Europium-W8044 labelled Streptavidin in assay buffer. Five microlitres of pre-mix 2 was dispensed to assay plates containing 0.1 microlitres of test compound and was incubated for 15 min prior to adding five microlitres of pre-mix 1. Plates were incubated at rt for 1 hour in the dark, prior to reading in a Pherastar multi-mode plate reader using HTRF filter set (ex 320, em 612 and 665). The FRET signal at 665 nm was divided by the signal at 612 nm and multiplied by 10,000 to generate a signal ratio value for each well. The raw data was transformed to % effect using the equation: Compound % effect=100*[(X−min)/(max−min)], where X represents the normalized value for the compound based on the Min (vehicle) and Max (reference compound) inhibition control. The concentration of test ligand that inhibited the activity by 50% (i.e., the IC50) was calculated by plotting the % effect versus test ligand concentration and fitting the data using the Genedata Screener Smart fit algorithm.

human TH17 cells = experiment: Inhibition of IL-17 release from human TH17 cells; type: cell-based; details: 96 h; isolated human TH17 cells cultured 4 days, IL-17A in supernatant by HTRF; read-out: pIC50 IL-17 release (converted)
Text: Inhibition of IL-17 Release from Human TH17 Cells
This test is designed to screen compounds for their inhibitory effect on the release of IL-17 from isolated and cultured human TH17 cells.
Peripheral blood mononuclear cells (PBMC) were isolated from heparin treated human whole blood from healthy donors by density gradient centrifugation. TH17 cells (CD4+CXCR3−CCR6+) were enriched using a human TH17 Cell Enrichment Kit (Stemcell Technologies) according to the manufacturer's protocol. The isolated TH17 cells were activated with aCD3aCD28 beads (MACS Miltenyi) and cultured in X-Vivo15 medium (Lonza) supplemented with L-glutamine, β-mercaptoethanol and a cytokine cocktail consisting of; IL-2, IL-23, IL-1β, IL-6, TGF-β. Cells were seeded at 8000 cells/well in a 384-plate (Corning, #3707) in the presence of compounds or DMSO and cultured for 4 days (37° C., 5% CO2). On day 4 supernatants were collected and IL-17A was measured using a Human IL-17 HTRF Assay kit (Cisbio Bioassays) according to the manufacturer's protocol. The IC50 values for the tested compounds was calculated using Genedata Screener® software (Genedata) using the following calculation method; Compound % effect=100*[(X−min)/(max−min)], where X represents the normalized value for the compound based on the Min (DMSO) and Max (compound 3-(1,3-benzodioxol-5-yl)-1-(3,5-dimethylpiperidin-1-yl)-3-(2-hydroxy-4,6-dimethoxyphenyl)propan-1-one at 10 μM, described in J. R. Hu et al. ACS Med. Chem. Lett. 2013, 4, 79-84) inhibition controls. Results

Row | SMILES | pIC50 [1] | pIC50 [2] | IC50 (human TH17 cells) [nM]
1 | CNC(=O)N1Cc2cc(S(C)(=O)=O)ccc2C1C(=O)Nc1ccc(C(C#N)(C(F)(F)F)C(F)(F)F)cc1 (stereo not drawn) [Example 4, N^1-[4-(2-Cyano-1,1,1,3,3,3-hexafluoropropan-2-yl)phenyl]-N^2-methyl-5-(methylsulfonyl)-1,3-dihydro-2H-isoindole-1,2-dicarboxamide] | 7.90 | 7.20 | 7.94
2 | CC(=O)NCCC(c1ccc(NC(=O)C2c3ccc(S(C)(=O)=O)cc3CN2C(C)=O)cc1)(C(F)(F)F)C(F)(F)F (stereo not drawn) [Example 45, 2-Acetyl-N-{4-[4-(acetylamino)-1,1,1-trifluoro-2-(trifluoromethyl)butan-2-yl]phenyl}-5-(methylsulfonyl)-2,3-dihydro-1H-isoindole-1-carboxamide] | 6.10 | 6.70 | 3160
3 | CC(=O)N1Cc2cc(S(C)(=O)=O)ccc2C1C(=O)Nc1ccc(C(CC(=O)NC(C)(C)C)(C(F)(F)F)C(F)(F)F)cc1 (stereo not drawn) [Example 43, 2-Acetyl-N-{4-[4-(tert-butylamino)-1,1,1-trifluoro-4-oxo-2-(trifluoromethyl)butan-2-yl]phenyl}-5-(methylsulfonyl)-2,3-dihydro-1H-isoindole-1-carboxamide] | 6.10 | 6.80 | 251
4 | CC(=O)N1Cc2cc(S(C)(=O)=O)ccc2C1C(=O)Nc1ccc(C(CC(=O)NCCF)(C(F)(F)F)C(F)(F)F)cc1 (stereo not drawn) [Example 41, 2-Acetyl-5-(methylsulfonyl)-N-(4-{1,1,1-trifluoro-4-[(2-fluoroethyl)amino]-4-oxo-2-(trifluoromethyl)butan-2-yl}phenyl)-2,3-dihydro-1H-isoindole-1-carboxamide] | 6.10 | 6.50 | > 3160
5 | CC(=O)N1Cc2cc(S(=O)(=O)CC3CC3)ccc2C1C(=O)Nc1ccc(C(C#N)(C(F)(F)F)C(F)(F)F)cc1 (stereo not drawn) [Example 13, 2-Acetyl-N-[4-(2-cyano-1,1,1,3,3,3-hexafluoropropan-2-yl)phenyl]-5-[(cyclopropylmethyl)sulfonyl]-2,3-dihydro-1H-isoindole-1-carboxamide] | 8.20 | 7.20 | 5.01
6 | COC1(C(=O)N2Cc3cc(S(C)(=O)=O)ccc3C2C(=O)Nc2ccc(C(C#N)(C(F)(F)F)C(F)(F)F)cc2)CC1 (stereo not drawn) [Example 3, N-[4-(2-Cyano-1,1,1,3,3,3-hexafluoropropan-2-yl)phenyl]-2-[(1-methoxycyclopropyl)carbonyl]-5-(methylsulfonyl)-2,3-dihydro-1H-isoindole-1-carboxamide] | 7.70 | 6.60 | 15.8
7 | CC(=O)N1Cc2cc(S(C)(=O)=O)ccc2C1C(=O)Nc1ccc(C(Cc2nc(C)no2)(C(F)(F)F)C(F)(F)F)cc1 (stereo not drawn) [Example 34, 2-Acetyl-N-(4-{1,1,1,3,3,3-hexafluoro-2-[(3-methyl-1,2,4-oxadiazol-5-yl)methyl]propan-2-yl}phenyl)-5-(methylsulfonyl)-2,3-dihydro-1H-isoindole-1-carboxamide] | 7.70 | 6.90 | 20

Next, values leading:

Row | pIC50 [1] | pIC50 [2] | IC50 (human TH17 cells) [nM] | SMILES
8 | 6.80 | 7.00 | 63.1 | CC(=O)N1Cc2cc(S(C)(=O)=O)ccc2C1C(=O)Nc1ccc(C(CC#N)(C(F)(F)F)C(F)(F)F)cc1 (stereo not drawn) [Example 36, 2-Acetyl-N-{4-[2-(cyanomethyl)-1,1,1,3,3,3-hexafluoropropan-2-yl]phenyl}-5-(methylsulfonyl)-2,3-dihydro-1H-isoindole-1-carboxamide]
9 | 7.00 | 7.00 | 50.1 | CC(=O)N1Cc2cc(S(C)(=O)=O)ccc2C1C(=O)Nc1ccc(C(NC2CCOCC2)(C(F)(F)F)C(F)(F)F)cc1 (stereo not drawn) [Example 20, 2-Acetyl-N-{4-[1,1,1,3,3,3-hexafluoro-2-(tetrahydro-2H-pyran-4-ylamino)propan-2-yl]phenyl}-5-(methylsulfonyl)-2,3-dihydro-1H-isoindole-1-carboxamide]
10 | 6.10 | 6.50 | 794 | CC(=O)N1Cc2cc(S(C)(=O)=O)ccc2C1C(=O)Nc1ccc(C(CC(=O)N(C)C)(C(F)(F)F)C(F)(F)F)cc1 (stereo not drawn) [Example 42, 2-Acetyl-N-{4-[4-(dimethylamino)-1,1,1-trifluoro-4-oxo-2-(trifluoromethyl)butan-2-yl]phenyl}-5-(methylsulfonyl)-2,3-dihydro-1H-isoindole-1-carboxamide]
11 | 7.70 | 7.40 | 15.8 | CC(=O)N1Cc2cc(S(C)(=O)=O)ccc2C1C(=O)Nc1ccc(C(N2CCOCC2)(C(F)(F)F)C(F)(F)F)cc1 (stereo not drawn) [Example 23, 2-Acetyl-N-{4-[1,1,1,3,3,3-hexafluoro-2-(morpholin-4-yl)propan-2-yl]phenyl}-5-(methylsulfonyl)-2,3-dihydro-1H-isoindole-1-carboxamide]
12 | 8.00 | 7.40 | 6.31 | CC(=O)N1Cc2cc(S(C)(=O)=O)ccc2C1C(=O)Nc1ccc(C(CCF)(C(F)(F)F)C(F)(F)F)cc1 (stereo not drawn) [Example 35, 2-Acetyl-5-(methylsulfonyl)-N-{4-[1,1,1,4-tetrafluoro-2-(trifluoromethyl)butan-2-yl]phenyl}-2,3-dihydro-1H-isoindole-1-carboxamide]
13 | 6.60 | 6.80 | 200 | CC(=O)N1Cc2cc(S(C)(=O)=O)ccc2C1C(=O)Nc1ccc(C(CCO)(C(F)(F)F)C(F)(F)F)cc1 (stereo not drawn) [Example 33, 2-Acetyl-5-(methylsulfonyl)-N-{4-[1,1,1-trifluoro-4-hydroxy-2-(trifluoromethyl)butan-2-yl]phenyl}-2,3-dihydro-1H-isoindole-1-carboxamide]
